The values that follow come from patent publication US5962314A, “Calcium receptor-active molecules” (priority 1997, dated 1999).

The subject of test [1] is serum parathyroid hormone. In words: serum PTH in a human. Format: in vivo. The following applies: single oral doses. The source says:
(§1) A range of single oral doses was used to assess safety, tolerance, and changes in primary hyperparathyroidism markers (e.g., plasma concentrations of parathyroid hormone and ionized serum calcium) and of serum calcitonin.

In another test the test system is serum ionized calcium. As to the kind of experiment: serum ionized calcium in a human. Format: in vivo. Conditions: higher single oral doses.
Text: as §1

In the case of `COc1cccc([C@@H](C)NCCCc2ccccc2Cl)c1` [NPS R-568, (R)-(+)-N-[3-(2-chlorophenyl)propyl]-α-methyl-3-methoxybenzylamine], the “effect on plasma PTH in human” value in test [1] was “transient dose-dependent decrease in plasma PTH concentration”. Further, the “effect on serum ionized calcium in human” value in the test with serum ionized calcium is on record as “decrease in serum ionized calcium concentration”.
